Laboratory results: patent US20260007644A1, “NIMODIPINE COMPOSITION FREE OF ETHANOL AND PHOSPHOLIPID FOR MOIST HEAT STERILIZATION AND METHOD FOR PREPARING SAME” (BEIJING DELIVERY PHARMACEUTICAL TECHNOLOGY CO., LTD, priority 2022, published 2026)

Tests used:
[1] = cited from earlier work
[2] = Description / appearance of the concentrates (visual inspection); type: physicochemical; details: 1.00 g active ingredient, HS15 45.00 g, propylene glycol 54.00 g, sterilized at 121° C. for 15 minutes
Procedure: The formation of solution upon dilution with 5% dextrose injection and the stability of the diluted solutions (the concentration of nimodipine is 0.1 mg/mL) were observed.
According to the Guidelines for the Stability Testing of Drug Substances and Preparations in Section 9001 of the General Notices, Pharmacopoeia of the People's Republic of China 2020, Volume IV, the concentrates prepared in Example 10 were tested at a temperature of 60° C. or under the light with an intensity of 5000 Lux, and sampled at the end of the 5th, 10th and 30th days to examine the specified items. • 1.
Method: visual inspection.

| Compound | solubility in water [1] | formation of a clear and transparent solution in the system of HS15 and propylene glycol [2] |
| --- | --- | --- |
| COCCOC(=O)C1=C(C)NC(C)=C(C(=O)OC(C)C)C1c1cccc([N+](=O)[O-])c1 (racemic) [Nimodipine, 1-methylethyl 2-methoxyethyl (±)-2,6-dimethyl-4-(3-nitrophenyl)-1,4-dihydropyridine-3,5-dicarboxylate] | insoluble in water | – |
| C=C1CC[C@@H]2[C@](C)(CO)[C@H](O)CC[C@@]2(C)[C@@H]1C/C=C1/C(=O)OC[C@H]1O [andrographolide] | – | failed to form clear and transparent solutions |
| CC[C@@H]([C@H](C)O)n1ncn(-c2ccc(N3CCN(c4ccc(OC[C@@H]5CO[C@@](Cn6cncn6)(c6ccc(F)cc6F)C5)cc4)CC3)cc2)c1=O [posaconazole] | – | failed to form clear and transparent solutions |
| COc1cc([C@@H]2c3cc4c(cc3[C@@H](O[C@@H]3O[C@@H]5CO[C@@H](c6cccs6)O[C@H]5[C@H](O)[C@H]3O)[C@H]3COC(=O)[C@H]23)OCO4)cc(OC)c1O [teniposide] | – | failed to form clear and transparent solutions |
| ginsenoside | – | failed to form clear and transparent solutions |
